This is an account of results in patent EP4752152A1, “STEROID COMPOUND, AND PREPARATION METHOD THEREFOR AND USE THEREOF” (Cholesgen (Shanghai) Co.Ltd., priority 2023, dated 2025).

One test relates to SREBP pathway. Description: SREBP luciferase reporter gene system (SRE-luciferase assay). It counts as cell-based, human. The note with it: Homo sapiens, Huh-7, 16 h, Huh-7/SRE-luc cells, sterol-deficient medium, 0.01-10 µM. An outline of the steps:
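Readout was SRE-driven luciferase normalised to GFP fluorescence in lysates of stably transfected Huh-7/SRE-luc hepatoma cells. Compounds (0.01, 0.03, 0.1, 0.3, 1.0, 3.0, 10 µM; DMSO control) were applied for 16 h in sterol-depleted medium with 2 µM lovastatin and 10 µM mevalonate; IC50 from variable-slope fit.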
For orientation: In a reporter assay the amount or activity of a reporter protein is the signal.
In the case of `COc1cc(C(O)CCC[C@@H](C)[C@H]2CC[C@H]3[C@H]4[C@H](CC[C@]23C)[C@@]2(C)CC[C@H](O)[C@H](O)[C@@H]2CC4(F)F)cc(F)n1` (single isomer, unassigned) [Compound 247, (1R,3aS,3bS,5aR,6R,7S,9aR,9bS,11aR)-4,4-difluoro-1-[(2R,6S)-6-(6-fluoro-2-methoxypyridin-4-yl)-6-hydroxyhexan-2-yl]-9a,11a-dimethylhexadecahydro-1H-cyclopenta[1,2-a]phenanthrene-6,7-diol or (1R,3aS,3bS,5aR,6R,7S,9aR,9bS,11aR)-4,4-difluoro-1-[(2R,6R)-6-(6-fluoro-2-methoxypyridin-4-yl)-6-hydroxyhexan-2-yl]-9a,11a-dimethylhexadecahydro-1H-cyclopenta[1,2-a]phenanthrene-6,7-diol], the IC50 was determined as 0.04 µM.
Still for that read-out and setting: as for `COc1cncc(F)c1C(O)CCC[C@@H](C)[C@H]1CC[C@H]2[C@H]3[C@H](CC[C@]12C)[C@@]1(C)CC[C@H](O)[C@H](O)[C@@H]1CC3(F)F` (single isomer, unassigned) [Compound 251, (1R,3aS,3bS,5aR,6R,7S,9aR,9bS,11aR)-4,4-difluoro-1-[(2R,6S)-6-(3-fluoro-5-methoxypyridin-4-yl)-6-hydroxyhexan-2-yl]-9a,11a-dimethylhexadecahydro-1H-cyclopenta[1,2-a]phenanthrene-6,7-diol or (1R,3aS,3bS,5aR,6R,7S,9aR,9bS,11aR)-4,4-difluoro-1-[(2R,6R)-6-(3-fluoro-5-methoxypyridin-4-yl)-6-hydroxyhexan-2-yl]-9a,11a-dimethylhexadecahydro-1H-cyclopenta[1,2-a]phenanthrene-6,7-diol], the figure is 0.042 µM; as for `C[C@H](CCCC(O)c1cccc(OC(F)(F)F)c1)[C@H]1CC[C@H]2C3=C(F)C[C@H]4[C@@H](O)[C@@H](O)CC[C@]4(C)[C@H]3CC[C@]12C` (stereo partly drawn) [Compound 88, (1R,3aR,5aR,6R,7S,9aR,9bR,11aR)-4-fluoro-1-[(2R)-6-hydroxy-6-{3-[(trifluoromethyl)oxy]phenyl}hexan-2-yl]-9a,11a-dimethyl-2,3,3a,5,5a,6,7,8,9,9a,9b,10,11,11a-tetradecahydro-1H-cyclopenta[1,2-a]phenanthrene-6,7-diol], 0.622 µM.
The same measure, in the same setting: as for `C[C@H](CCC[C@@H](O)c1ccc(F)nc1OCC1COC1)[C@H]1CC[C@H]2[C@H]3[C@H](CC[C@]12C)[C@@]1(C)CC[C@H](O)[C@H](O)[C@@H]1CC3(F)F` [Compound 386, (1R,3aS,3bS,5aR,6R,7S,9aR,9bS,11aR)-4,4-difluoro-1-[(2R,6R)-6-{6-fluoro-2-[(oxetan-3-ylmethyl)oxy]pyridin-3-yl}-6-hydroxyhexan-2-yl]-9a,11a-dimethylhexadecahydro-1H-cyclopenta[1,2-a]phenanthrene-6,7-diol], the figure is 0.026 µM; as for `C[C@H](CCC[C@@H](O)c1nnnn1C)[C@H]1CC[C@H]2[C@H]3[C@H](CC[C@]12C)[C@@]1(C)CC[C@H](O)C[C@@H]1CC3(F)F` (single isomer, unassigned) [Compound 381], 0.285 µM; as for `C[C@H](CCCC(O)c1ccccc1F)[C@H]1CC[C@H]2C3=C(F)C[C@H]4[C@@H](O)[C@@H](O)CC[C@]4(C)[C@H]3CC[C@]12C` (stereo partly drawn) [Compound 4, (1R,3aR,5aR,6R,7S,9aR,9bR,11aR)-4-fluoro-1-[(2R)-6-(2-fluorophenyl)-6-hydroxyhexan-2-yl]-9a,11a-dimethyl-2,3,3a,5,5a,6,7,8,9,9a,9b,10,11,11a-tetradecahydro-1H-cyclopenta[1,2-a]phenanthrene-6,7-diol], 0.09 µM.
On the same count and under the same terms, as for `COc1cc(F)c(C(O)CCC[C@@H](C)[C@H]2CC[C@H]3[C@H]4[C@H](CC[C@]23C)[C@@]2(C)CC[C@H](O)[C@H](O)[C@@H]2CC4(F)F)c(F)c1` (single isomer, unassigned) [Compound 205, (1R,3aS,3bS,5aR,6R,7S,9aR,9bS,11aR)-1-[(2R,6R)-6-(2,6-difluoro-4-methoxyphenyl)-6-hydroxyhexan-2-yl]-4,4-difluoro-9a,11a-dimethylhexadecahydro-1H-cyclopenta[1,2-a]phenanthrene-6,7-diol or (1R,3aS,3bS,5aR,6R,7S,9aR,9bS,11aR)-1-[(2R,6S)-6-(2,6-difluoro-4-methoxyphenyl)-6-hydroxyhexan-2-yl]-4,4-difluoro-9a,11a-dimethylhexadecahydro-1H-cyclopenta[1,2-a]phenanthrene-6,7-diol], the figure is 0.107 µM; as for `C[C@H](CCC[C@H](O)c1nc2cnccc2n1C)[C@H]1CC[C@H]2[C@H]3[C@H](CC[C@]12C)[C@@]1(C)CC[C@H](O)[C@H](O)[C@@H]1CC3(F)F` [Compound 318, (1R,3aS,3bS,5aR,6R,7S,9aR,9bS,11aR)-4,4-difluoro-1-[(2R,6S)-6-hydroxy-6-(1-methylimidazo[5,4-c]pyridin-2-yl)hexan-2-yl]-9a,11a-dimethylhexadecahydro-1H-cyclopenta[1,2-a]phenanthrene-6,7-diol], 0.296 µM; as for `COc1cc(F)c(C(O)CCC[C@@H](C)[C@H]2CC[C@H]3[C@H]4[C@H](CC[C@]23C)[C@@]2(C)CC[C@H](O)[C@H](O)[C@@H]2CC4(F)F)c(OC)c1` (stereo partly drawn) [Compound 182, (1R,3aS,3bS,5aR,6R,7 S,9aR,9bS,11aR)-4,4-Difluoro-1-[(2R)-6-(2-fluoro-4,6-dimethoxyphenyl)-6-hydroxyhexan-2-yl]-9a,11a-dimethylhexadecahydro-1H-cyclopenta[1,2-a]phenanthrene-6,7-diol], 0.121 µM.
As for `C[C@H](CCCC(O)c1cnc2c(c1)OC(F)(F)O2)[C@H]1CC[C@H]2[C@H]3[C@H](CC[C@]12C)[C@@]1(C)CC[C@H](O)[C@H](O)[C@@H]1CC3(F)F` (stereo partly drawn) [Compound 284, (1R,3aS,3bS,5aR,6R,7 S,9aR,9bS,11aR)-1-[(2R)-6-(2,2-Difluoro[1,3]dioxolo[4,5-b]pyridin-6-yl)-6-hydroxyhexan-2-yl]-4,4-difluoro-9a,11a-dimethylhexadecahydro-1H-cyclopenta[1,2-a]phenanthrene-6,7-diol], the IC50 turned out to be 0.309 µM.
For the compound `COc1nc(F)ccc1[C@@H](O)CCC[C@@H](C)[C@H]1CC[C@H]2[C@H]3[C@H](CC[C@]12C)[C@@]1(C)CC[C@H](O)C[C@@H]1CC3(F)F` [Compound 312, (1R,3aS,3bR,5aR,7S,9aS,9bS,11aR)-4,4-difluoro-1-[(2R,6S)-6-(6-fluoro-2-methoxypyridin-3-yl)-6-hydroxyhexan-2-yl]-9a,11a-dimethylhexadecahydro-1H-cyclopenta[1,2-a]phenanthren-7-ol], the IC50 was 0.276 µM.
The same measure, in the same setting: as for `C[C@H](CCC(=O)N(C)c1ccccc1F)[C@H]1CC[C@H]2C3=C(F)C[C@H]4[C@@H](O)[C@@H](O)CC[C@]4(C)[C@H]3CC[C@]12C` [Compound 96, (4R)-4-[(1R,3aR,5aR,6R,7S,9aR,9bR,11aR)-4-fluoro-6,7-dihydroxy-9a,11a-dimethyl-2,3,3a,5,5a,6,7,8,9,9a,9b,10,11,11a-tetradecahydro-1H-cyclopenta[1,2-a]phenanthren-1-yl]-N-(2-fluorophenyl)-N-methylpentanamide], the figure is 0.34 µM; as for `C[C@H](CCCC(O)c1ccccc1F)[C@H]1CC[C@H]2[C@H]3[C@H](CC[C@]12C)[C@@]1(C)CC[C@H](O)CC1CC3(F)F` (stereo partly drawn) [Compound 74, (1R,3aS,3bR,7S,9aS,9bS,11aR)-4,4-difluoro-1-[(2R)-6-(2-fluorophenyl)-6-hydroxyhexan-2-yl]-9a,11a-dimethylhexadecahydro-1H-cyclopenta[1,2-a]phenanthren-7-ol], 0.68 µM; as for `C[C@H](CCC[C@@H](O)c1cccc2cnn(C)c12)[C@H]1CC[C@H]2C3=C(F)C[C@H]4[C@@H](O)[C@@H](O)CC[C@]4(C)[C@H]3CC[C@]12C` (single isomer, unassigned) [Compound 246], 0.139 µM.

Still in this test, the particulars now being: Huh-7/SRE-luc cells, sterol-deficient medium, 16 hours, 0.01-10 µM.
Turning to `COc1ccc(F)c(C(O)CCC[C@@H](C)[C@H]2CC[C@H]3[C@H]4[C@H](CC[C@]23C)[C@@]2(C)CC[C@H](O)[C@H](O)[C@@H]2CC4(F)F)c1` (single isomer, unassigned) [Compound 166, (1R,3aS,3bS,5aR,5aR,6R,7S,9aR,9bS,11aR) -4,4-difluoro-1-[(2R,6S)-6-(2-fluoro-5-methoxyphenyl)-6-hydroxyhexan-2-yl]-9a,11a-dimethylhexadecahydro-1H-cyclopenta[1,2-a]phenanthrene-6,7-diol or (1R,3aS,3bS,5aR,6R,7S,9aR,9bS,11aR)-4,4-difluoro-1-[(2R,6R)-6-(2-fluoro-5-methoxyphenyl)-6-hydroxyhexan-2-yl]-9a,11a-dimethylhexadecahydro-1H-cyclopenta[1,2-a]phenanthrene-6,7-diol], the IC50 came out at 0.138 µM.
Same read-out and setting: as for `COc1cccc(F)c1C(O)CCCC(C)C1CCC2C3=C(F)CC4C(O)C(O)CCC4(C)C3CCC21C` (single isomer, unassigned) [Compound 164], the figure is 0.295 µM; as for `C[C@H](CCC[C@@H](O)c1cc2ccccc2o1)[C@H]1CC[C@H]2[C@H]3[C@H](CC[C@]12C)[C@@]1(C)CC[C@H](O)[C@H](O)[C@@H]1CC3(F)F` (stereo in doubt) [Compound 317, (1R,3aS,3bS,5aR,6R,7S,9aR,9bS,11aR)-1-[(2R,6R)-6-(1-benzofuran-2-yl)-6-hydroxyhexan-2-yl]-4,4-difluoro-9a,11a-dimethylhexadecahydro-1H-cyclopenta[1,2-a]phenanthrene-6,7-diol], 0.155 µM; as for `C[C@H](CCCC(O)c1cccc2cn[nH]c12)[C@H]1CC[C@H]2[C@H]3[C@H](CC[C@]12C)[C@@]1(C)CC[C@H](O)[C@H](O)[C@@H]1CC3(F)F` (single isomer, unassigned) [Compound 268, (1R,3aS,3bS,5aR,6R,7S,9aR,9bS,11aR)-4,4-difluoro-1-[(2R,6S)-6-hydroxy-6-(1H-indazol-7-yl)hexan-2-yl]-9a,11a-dimethylhexadecahydro-1H-cyclopenta[1,2-a]phenanthrene-6,7-diol or (1R,3aS,3bS,5aR,6R,7S,9aR,9bS,11aR)-4,4-difluoro-1-[(2R,6R)-6-hydroxy-6-(1H-indazol-7-yl)hexan-2-yl]-9a,11a-dimethylhexadecahydro-1H-cyclopenta[1,2-a]phenanthrene-6,7-diol], 0.141 µM.

As a reminder, the IC50 is the concentration that gives 50% inhibition.
